Where a name gives a salt, the structure may show the parent alone.
Test system: HCT116
Details: 72 h
Outline: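 HCT116 cells were seeded at 250 per well in 1536-well plates with 5 h allowed for attachment. CellTiter-Glo luminescence was normalized against vehicle (0%) and positive control (-100%) before pattern correction. The IC50 and maximal efficacy figures derive from four-parameter Hill fits.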

IC50 cell viability (ICRF193 0 nM)	IC50 cell viability (ICRF193 200 nM)	Structure (SMILES)
> 45.8 µM	> 45.8 µM	CC1(C)S[C@@H]2[C@H](NC(=O)Cc3ccccc3)C(=O)N2[C@H]1C(=O)O [Penicillin G Sodium]
> 45.8 µM	> 45.8 µM	O=C(O)CN(CCN(CC(=O)O)CC(=O)O)CCN(CC(=O)O)CC(=O)O [Pentetic acid]
> 45.8 µM	> 45.8 µM	CN[C@@H]1[C@@H](O)[C@@H](O[C@@H]2[C@H](O)[C@H](O[C@H]3OC(CN)=CC[C@H]3N)[C@@H](N)C[C@H]2N)OC[C@]1(C)O [Pentisomicin]
> 45.8 µM	> 45.8 µM	C[N+]1(CCCCC[N+]2(C)CCCC2)CCCC1 [Pentolinium bitartrate]
> 45.8 µM	> 45.8 µM	OC[C@H]1O[C@@H](n2cnc3c2N=CNC[C@H]3O)C[C@@H]1O [Pentostatin]
> 45.8 µM	> 45.8 µM	Cc1c(N)nc([C@H](CC(N)=O)NC[C@H](N)C(N)=O)nc1C(=O)N[C@H](C(=O)N[C@H](C)[C@@H](O)[C@H](C)C(=O)N[C@H](C(=O)NCCc1nc(-c2nc(C(=O)NCCCN[C@@H](C)c3ccccc3)cs2)cs1)[C@@H](C)O)[C@@H](O[C@@H]1O[C@@H](CO)[C@@H](O)[C@H](O)[C@@H]1O[C@H]1O[C@H](CO)[C@@H](O)[C@H](OC(N)=O)[C@@H]1O)c1c[nH]cn1 [Peplomycin sulfate]
> 45.8 µM	> 45.8 µM	CCC(CC)[C@H](NC(C)=O)[C@@H]1[C@H](O)[C@@H](C(=O)O)C[C@H]1NC(=N)N [Peramivir]
> 45.8 µM	> 45.8 µM	FC(F)(F)C(F)(F)C(F)(F)C(F)(F)C(F)(F)F [Perflenapent]
> 45.8 µM	> 45.8 µM	FC(F)(F)C(F)(F)C(F)(F)C(F)(F)C(F)(F)C(F)(F)F [Perflexane]
> 45.8 µM	> 45.8 µM	CCC[C@H](N[C@@H](C)C(=O)N1[C@H](C(=O)O)C[C@@H]2CCCC[C@@H]21)C(=O)OCC [Perindopril]
> 45.8 µM	> 45.8 µM	OC(CN1CCCCC1)c1cc(-c2ccccc2)on1 (centres undefined) [Perisoxal citrate]
> 45.8 µM	> 45.8 µM	CN1CCN(C2=Nc3ccccc3Cc3ccccc32)CC1 [Perlapine]
> 45.8 µM	> 45.8 µM	CCOc1ccc(/N=C(\C)Nc2ccc(OCC)cc2)cc1 [Phenacaine hydrochloride]
> 45.8 µM	> 45.8 µM	NC(=O)NC(=O)Cc1ccccc1 [Phenacemide]
> 45.8 µM	> 45.8 µM	CCOc1ccc(NC(C)=O)cc1 [Phenacetin]
> 45.8 µM	> 45.8 µM	Nc1ccc(/N=N/c2ccccc2)c(N)n1 [Phenazopyridine hydrochloride]
> 45.8 µM	> 45.8 µM	NNCCc1ccccc1 [Phenelzine]
> 45.8 µM	> 45.8 µM	CC(Oc1ccccc1)C(=O)N[C@@H]1C(=O)N2[C@@H]1SC(C)(C)[C@@H]2C(=O)O (some centres undefined) [Phenethicillin potassium salt]
> 45.8 µM	> 45.8 µM	O=C1c2ccccc2C(=O)C1c1ccccc1 [Phenindione]

IC50 cell viability (ICRF193 0 nM)	IC50 cell viability (ICRF193 200 nM)	Structure (SMILES)
> 45.8 µM	> 45.8 µM	CN(C)CCC(c1ccccc1)c1ccccn1 (centres undefined) [Pheniramine maleate]
> 45.8 µM	> 45.8 µM	O=S1(=O)OC(c2ccc(O)cc2)(c2ccc(O)cc2)c2ccccc21 [Phenol red]
> 45.8 µM	> 45.8 µM	Oc1ccccc1 [Phenol]
> 45.8 µM	> 45.8 µM	O=C1OC(c2ccc(O)cc2)(c2ccc(O)cc2)c2ccccc21 [Phenolphthalein]
> 45.8 µM	> 45.8 µM	O=C(O)c1ccccc1C(c1ccc(O)cc1)c1ccc(O)cc1 [Phenolphthalin]
> 45.8 µM	> 45.8 µM	CC(COc1ccccc1)N(CCCl)Cc1ccccc1 (centres undefined) [Phenoxybenzamine hydrochloride]
> 45.8 µM	> 45.8 µM	CCC(c1ccccc1)c1c(O)c2ccccc2oc1=O (centres undefined) [Phenprocoumon]
> 45.8 µM	> 45.8 µM	CN1C(=O)CC(c2ccccc2)C1=O (centres undefined) [Phensuximide]
> 45.8 µM	> 45.8 µM	Cc1ccc(N(CC2=NCCN2)c2cccc(O)c2)cc1 [Phentolamine mesilate]
> 45.8 µM	> 45.8 µM	Nc1ccc(C(=O)Oc2ccccc2)c(O)c1 [Phenyl 4-aminosalicylate]
> 45.8 µM	> 45.8 µM	O=C(CCCCCCCCC#CI)Oc1ccccc1 [Phenyl 11-iodo-10-undecynoate]
> 45.8 µM	> 45.8 µM	O=C(Oc1ccccc1)c1ccccc1O [Phenyl salicylate]
> 45.8 µM	> 45.8 µM	CC(=O)N(CC(=O)N(C)C)c1ccccc1 [Phenylacetylglycine dimethylamide]
> 45.8 µM	> 45.8 µM	CNC[C@H](O)c1cccc(O)c1 [Phenylephrine hydrochloride]
> 45.8 µM	> 45.8 µM	CN(C)CCOc1ccccc1Cc1ccccc1 [Phenyltoloxamine citrate]
> 45.8 µM	> 45.8 µM	O=C(CCc1ccc(O)cc1)c1c(O)cc(O)cc1O[C@@H]1O[C@H](CO)[C@@H](O)[C@H](O)[C@H]1O [Phlorizin]
> 45.8 µM	> 45.8 µM	C#CC(C)(CC)OC(=O)c1ccccc1C(=O)O (centres undefined) [Phthalofyne]
> 45.8 µM	> 45.8 µM	CCCCCCCCCCCCCCCC(=O)O[C@@H]1CC(C)=C(/C=C/C(C)=C/C=C/C(C)=C/C=C/C=C(C)/C=C/C=C(C)/C=C/C2=C(C)C[C@@H](OC(=O)CCCCCCCCCCCCCCC)CC2(C)C)C(C)(C)C1 [Physalien]

Continued, molecule first:

Structure (SMILES)	IC50 cell viability (ICRF193 0 nM)	IC50 cell viability (ICRF193 200 nM)
CC(=O)OCC(=O)[C@@]1(O)[C@H](C)C[C@H]2[C@@H]3C[C@H](F)C4=CC(=O)C=C[C@]4(C)[C@H]3[C@@H](O)C[C@@]21C [Paramethasone acetate]	> 45.8 µM	> 45.8 µM
CCC(=O)NS(=O)(=O)c1ccc(-c2c(-c3ccccc3)noc2C)cc1 [Parecoxib]	> 45.8 µM	> 45.8 µM
CCOc1ccc(C(=O)OCCN(CC)CC)cc1 [Parethoxycaine]	> 45.8 µM	> 45.8 µM
C#CCN(C)Cc1ccccc1 [Pargyline hydrochloride]	> 45.8 µM	> 45.8 µM
C[C@H](/C=C/[C@H](C)C(C)(C)O)[C@H]1CC[C@H]2/C(=C/C=C3C[C@@H](O)C[C@H](O)C3)CCC[C@]12C [Paricalcitol-D6]	> 45.8 µM	> 45.8 µM
Fc1ccc([C@@H]2CCNC[C@H]2COc2ccc3c(c2)OCO3)cc1 [Paroxetine]	> 45.8 µM	> 45.8 µM
CCC(=O)c1ccc(O)cc1 [Paroxypropione]	> 45.8 µM	> 45.8 µM
NCCCC[C@@H]1NC(=O)[C@@H](Cc2c[nH]c3ccccc23)NC(=O)[C@H](c2ccccc2)NC(=O)[C@@H]2C[C@@H](OC(=O)NCCN)CN2C(=O)[C@H](Cc2ccccc2)NC(=O)[C@H](Cc2ccc(OCc3ccccc3)cc2)NC1=O [Pasireotide (ditrifluoroacetate)]	> 45.8 µM	> 45.8 µM
C[C@H]1COc2c(C3(N)CC3)c(F)cc3c(=O)c(C(=O)O)cn1c23 [Pazufloxacin]	> 45.8 µM	> 45.8 µM
CC(C(=O)O)c1ccc(/C=C2\CCCCC2=O)cc1 (centres undefined) [Pelubiprofen]	> 45.8 µM	> 45.8 µM
Nc1nc2[nH]cc(CCc3ccc(C(=O)N[C@@H](CCC(=O)O)C(=O)O)cc3)c2c(=O)[nH]1 [Pemetrexed disodium heptahydrate]	> 45.8 µM	> 45.8 µM
Cc1cccn2c(=O)c(-c3nnn[nH]3)cnc12 [Pemirolast potassium]	> 45.8 µM	> 45.8 µM
Nc1nc(O)c2ncn(CCC(CO)CO)c2n1 [Penciclovir]	> 45.8 µM	> 45.8 µM
CCCCCC1Nc2cc(C(F)(F)F)c(S(N)(=O)=O)cc2S(=O)(=O)N1 (centres undefined) [Penflutizide]	> 45.8 µM	> 45.8 µM
CCCCC[C@@H](O)[C@H]1C(=O)O[C@H](C)[C@@H](O)/C=C/C=C/C=C/C=C/C=C(\C)[C@@H](O)[C@H](O)[C@H](O)C[C@H](O)C[C@H](O)C[C@H](O)C[C@H](O)C[C@@H]1O [Pentamycin]	> 45.8 µM	> 45.8 µM
CC(=O)CCCCn1c(=O)c2c(ncn2C)n(C)c1=O [Pentoxifylline]	> 45.8 µM	> 45.8 µM
CCCN1C[C@H](CSC)C[C@@H]2c3cccc4[nH]cc(c34)C[C@H]21 [Pergolide methanesulfonate]	> 45.8 µM	> 45.8 µM
c1ccc2c(c1)Nc1ccccc1S2 [Phenothiazine]	> 45.8 µM	> 45.8 µM
CC(C)=CC1C(C(=O)OCc2cccc(Oc3ccccc3)c2)C1(C)C (centres undefined) [Phenothrin]	> 45.8 µM	> 45.8 µM
O=C(O)COc1ccccc1 [Phenoxyacetic acid]	> 45.8 µM	> 45.8 µM
NC(=O)OCCCc1ccccc1 [Phenprobamate]	> 45.8 µM	> 45.8 µM
O=C(O)Cc1ccccc1 [Phenylacetic acid]	> 45.8 µM	> 45.8 µM
CC(N)C(O)c1ccccc1 (centres undefined) [Phenylpropanolamine hydrochloride]	> 45.8 µM	> 45.8 µM
COP(=S)(OC)SCN1C(=O)c2ccccc2C1=O [Phosmet]	> 45.8 µM	> 45.8 µM
CNC(=O)Oc1ccc2c(c1)[C@]1(C)CCN(C)[C@@H]1N2C [Physostigmine]	> 45.8 µM	> 45.8 µM

— the supplement of paper PMC12137928
